Reference: patent US20200123208A1, “PEPTIDES AND NEMATICIDAL COMPOSITIONS” (priority 2017, published 2020)

How the values were obtained:
Assay type in all cases: in vivo
Globodera pallida J2s = assay: Tomato invasion assay, G. pallida J2s; conditions: exogenous pre-treatment of J2s
Procedure: (§1) Predicted uNLPs from both M. incognita and G. pallida were synthesised by EZBiolab and dissolved into pH adjusted ddH2O to make a 5 mM stock which was aliquoted and stored at −20° C. J2s of both M. incognita and G. pallida were incubated for 24 hours in 200 μl of each peptide in a 24 well plate (SPL Lifesciences, South Korea) at a defined concentration.
(§2) Tomato seeds were sterilised with 2.5% NaOCl for 15 minutes, washed 5 times in ddH2O and germinated on 0.5% Murashige and Skoog plates at 23° C. […] Invasion assays were performed by mixing 500 pre-treated M. incognita or G. pallida J2s with agar slurry and a single tomato seedling (2 days post germination) in a 6 well plate. Assays were left at 23° C. for 24 hours in the case of M. incognita and at 18° C. for 24 hours in the case of G. pallida under a 16 hour light and 8 hour darkness cycle. Seedlings were stained using acid fuschin [69] and the number of nematodes within the roots counted.

[1] = system: Meloidogyne incognita J2s; assay: Serotonin-induced stylet thrusting assay, M. incognita J2s; conditions: 100 μM uNLP, 24 h, 5 mM serotonin
Procedure: as §1
Stylet thrusting assays where performed by incubating 100 M. incognita or G. pallida J2s for 15 minute in 5 mM or 2 mM serotonin (Sigma Aldrich, USA), respectively. J2s were placed on a glass slide and stylet thrusts were counted for randomly selected J2s, for 1 minute each. Counting took place for a maximum of 15 minutes. Longer incubations yielded inconsistent results. At least 30 J2s were counted for each neuropeptide treatment.

[2] = system: Meloidogyne incognita J2s; assay: B. subtilis and C. reinhardtii plant protection assay, M. incognita; conditions: tomato
Procedure: as §2
B. subtilis were grown overnight in LB media containing ampicillin (100 μg/ml) at 37° C. with shaking, and harvested in the log phase of growth determined by measuring OD600nm. Five ml of culture at 0.5 OD was spun down and the pellet mixed with 3 ml of agar slurry and 500 J2s from either G. pallida or M. incognita. C. reinhardtii clones were grown at 23° C. with shaking, cultures in the log phase were measured at OD750 and 5 ml of culture at 0.5 OD was pelleted by centrifugation. C. reinhardtii pellets were mixed with 3 ml of agar slurry and 500 J2s from either G. pallida or M. incognita. Plant invasion assays were performed as described above.
uNLP secretion inserts, and vector pChlamy_3 were digested using Kpnl/Xbal (New England Biolabs, USA), ligated using T4 ligase (New England Biolabs, USA), and cloned into Escherichia coli One Shot® TOP10 chemically competent cells (Life Technologies, USA) following manufacturer's instructions. Ampicillin (Sigma Aldrich, USA) was used to select E. coli containing the pChlamy_3 plasmid, which was subsequently extracted using the High Pure Plasmid Isolation Kit (Roche) and sequenced (Eurofins Genomics, UK) to identify correct clones. C. reinhardtii was transformed by electroporation following manufacturer's instructions (GeneArt® Chlamydomonas Engineering Kit, Life Technologies) and individual colonies grown on TAP-Agar-Hygromycin plates (10 μg/mL) (Sigma Aldrich, USA) at 23° C. Colonies were picked and grown at 23° C. in 100 ml TAP growth media (Invitrogen, USA) with constant orbital agitation. qRT-PCR was performed to identify clones with the highest level of uNLP expression, which were then selected for downstream assays (pChlamy universal FWD: […], nlp-15b REV: CTACTAGTCGAGGCCGGTA; Mi-nlp-9f REV: GAACGGGCGGATGAAGTAG).
uNLP secretion inserts, and vector pBE-S were digested using Xbal/Mlul (New England Biolabs, USA), ligated using T4 ligase (New England Biolabs, USA), and cloned into E. coli One Shot® TOP10 chemically competent cells (Life Technologies, USA) following manufacturer's instructions. […]

[3] = system: Meloidogyne incognita J2s; assay: Tomato invasion assay, M. incognita J2s
Procedure: as §1, §2

[4] = system: mixed-stage Caenorhabditis elegans; assay: C. elegans chemotaxis assay (non-target nematode); conditions: 100 μM, 24 h, no statistically significant impact
Procedure: C. elegans wild-type N2 Bristol strain were obtained from the C. elegans Genomics Center and maintained on a Escherichia coli (strain OP50) lawn on nematode growth medium (NGM) agar plates (3 g/l NaCl, 17 g/l agar, 2.5 g/l peptone, 5 mg/l cholesterol, 25 mM KH2PO4 (pH 6.0), 1 mM CaCl2, 1 mM MgSO4) at 20° C.. Chemotaxis assays were performed in a 9 cm diameter Petri dish on NGM agar which was split into a positive and negative side with a central ‘dead zone’ of 1.5 cm diameter. 100 mixed-staged C. elegans were washed three times in M9 buffer and soaked in 100 μM PPN uNLP, or M9 vehicle control for 24 hours. 2 μl of 50 mM sodium acetate, 0.5% pyrazine, 0.5% benzaldehyde or 0.5% diacetyl was spotted onto the positive side, 2 μl of ddH2O was spotted onto the negative side. Pyrazine, benzaldehyde and diacetyl volatile attractants were assayed immediately whereas the water soluble sodium acetate was assayed 18 hours following addition to the plate. Assays were maintained in the dark at 20° C., and counted after 1 hour.

## SFDSFTGPGFTGLD [Mi-NLP-15b]
Globodera pallida J2s
  effect of exogenous peptide exposure on G. pallida host invasion (in words): does not inhibit host invasion
[1]
  rate of serotonergic-induced stylet thrusting compared with controls: 129.9%+/−10.59
[2]; B. subtilis cultures secreting the uNLP
  M. incognita invasion relative to control: 26.63%+/−8.12
[2]; C. reinhardtii cultures secreting the uNLP
  M. incognita invasion relative to untransformed C. reinhardtii: 10.82%+/−6.574
[3]; 100 μM uNLP, 24 h, tomato seedlings, normalised to negative control
  host invasion compared to controls: 32.22%+/−8.122
[3]; Mi-NLP-15b 100 nM, 24 h
  J2 invasion relative to control: 69.9%+/−10.66
[3]; Mi-NLP-15b 1 μM, 24 h
  J2 invasion relative to control: 59.05%+/−8.545
[3]; Mi-NLP-15b 10 μM, 24 h
  J2 invasion relative to control: 54.62%+/−8.362
[3]; Mi-NLP-15b 100 μM, 24 h (dilution series)
  J2 invasion relative to control: 35.06%+/−6.407
[4]; control 0.4269
  chemotaxis index (Cl) towards sodium acetate: 0.3142+/−0.039
[4]; control 0.4904
  chemotaxis index (Cl) towards pyrazine: 0.4959+/−0.089
[4]; control 0.6638
  chemotaxis index (Cl) towards diacetyl: 0.6640+/−0.126
[4]; control 0.7026
  chemotaxis index (Cl) towards benzaldehyde: 0.7032+/−0.075
